Values of other authors in patent US12454515B2, “2-aminoindane compounds for mental disorders or enhancement” (Tactogen Inc, priority 2020, dated 2025).

Tested on: neuritogenesis
Conditions: literature value

SMILES: CNC(C)Cc1ccc2c(c1)OCO2 (centres unmarked) [MDMA]
- EC50 (Ly et al. Cell reports 23 (2018) Figure S3, read-out: EC50 for promoting neuritogenesis): 7.41 nM
- Emax for promoting neuritogenesis (relative to ketamine, Ly et al. 2018): approximately twice that of ketamine
